In ChEMBL document CHEMBL1201862, “PubChem BioAssay data set” (2004):
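Cells were grown in 96-well plates and exposed to each compound for 48 hours at five concentrations; endpoints were interpolated linearly between bracketing concentrations, or set to the highest concentration if not reached. At the GI50, growth is halved.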 Activity calls are given as the source filed them. No stated cut-off is given here; in the data, active = GI50 up to about 1.1 µM and inactive = higher.

What was measured:
Experiment in all cases: inhibition of tumour cell growth, NCI panel, 48 h
SK-OV-3 = system: SK-OV-3
UACC-62 = system: UACC-62
CCRF-CEM = system: CCRF-CEM
HCT-116 = system: HCT-116
HL-60 = system: HL-60
DMS-114 = system: DMS-114
UACC-257 = system: UACC-257
SR = system: SR
U-251 = system: U-251
MOLT-4 = system: MOLT-4
SK-MEL-2 = system: SK-MEL-2
HT-29 = system: HT-29
HOP-92 = system: HOP-92
RXF 393 = system: RXF 393
LOX IMVI = system: LOX IMVI
M19-MEL = system: M19-MEL
K562 = system: K562
KM-20L2 = system: KM-20L2
SF-295 = system: SF-295
EKVX = system: EKVX
LXFL 529 = system: LXFL 529
ACHN = system: ACHN
DLD-1 = system: DLD-1
OVCAR-8 = system: OVCAR-8
SK-MEL-28 = system: SK-MEL-28
HCC 2998 = system: HCC 2998
OVCAR-5 = system: OVCAR-5
OVCAR-3 = system: OVCAR-3
NCI-H23 = system: NCI-H23
Malme-3M = system: Malme-3M
RPMI-8226 = system: RPMI-8226
SK-MEL-5 = system: SK-MEL-5
COLO 205 = system: COLO 205
SN12C = system: SN12C
DMS-273 = system: DMS-273
A549 = system: A549
IGROV-1 = system: IGROV-1
SW-620 = system: SW-620
SNB-19 = system: SNB-19
HOP-62 = system: HOP-62
NCI-H226 = system: NCI-H226
RXF 631 = system: RXF 631
HCT-15 = system: HCT-15
NCI-H460 = system: NCI-H460
786-0 = system: 786-0
SF-268 = system: SF-268
SF-539 = system: SF-539
CAKI-1 = system: CAKI-1
TK-10 = system: TK-10
KM12 = system: KM12
NCI-H522 = system: NCI-H522

Structure (SMILES): COC(=O)C(=Cc1cc(OC)c(OC)c(OC)c1-c1cc2c(cc1C1(C)OCCS1)OCO2)C(=O)OC (stereo unspecified)
- GI50 (SK-OV-3): 38.3 µM (inactive)
- GI50 (UACC-62): 15.5 µM (inactive)
- GI50 (CCRF-CEM): 33 µM (inactive)
- GI50 (HCT-116): 24.6 µM (inactive)
- GI50 (HL-60): 24.9 µM (inactive)
- GI50 (DMS-114): 19.8 µM (inactive)
- GI50 (UACC-257): 31.4 µM (inactive)
- GI50 (SR): 22.2 µM (inactive)
- GI50 (U-251): 45.5 µM (inactive)
- GI50 (MOLT-4): 24 µM (inactive)
- GI50 (SK-MEL-2): 21.1 µM (inactive)
- GI50 (HT-29): 37 µM (inactive)
- GI50 (HOP-92): 3.5 µM (inactive)
- GI50 (RXF 393): 26.7 µM (inactive)
- GI50 (LOX IMVI): 22.6 µM (inactive)
- GI50 (M19-MEL): 23 µM (inactive)
- GI50 (K562): 33.6 µM (inactive)
- GI50 (KM-20L2): 22.3 µM (inactive)
- GI50 (SF-295): 31.6 µM (inactive)
- GI50 (EKVX): 35.6 µM (inactive)
- GI50 (LXFL 529): 24.1 µM (inactive)
- GI50 (ACHN): 55.3 µM (inactive)
- GI50 (DLD-1): 27.6 µM (inactive)
- GI50 (OVCAR-8): 31.6 µM (inactive)
- GI50 (SK-MEL-28): 33.4 µM (inactive)
- GI50 (HCC 2998): 32.2 µM (inactive)
- GI50 (OVCAR-5): > 100 µM (inactive)
- GI50 (OVCAR-3): 15.2 µM (inactive)
- GI50 (NCI-H23): 19.8 µM (inactive)
- GI50 (Malme-3M): 37.3 µM (inactive)
- GI50 (RPMI-8226): 28 µM (inactive)
- GI50 (SK-MEL-5): 26.4 µM (inactive)
- GI50 (COLO 205): 40 µM (inactive)
- GI50 (SN12C): 44.5 µM (inactive)
- GI50 (DMS-273): 23.2 µM (inactive)
- GI50 (A549): 29.1 µM (inactive)
- GI50 (IGROV-1): 16.3 µM (inactive)
- GI50 (SW-620): 33.2 µM (inactive)
- GI50 (SNB-19): 98.9 µM (inactive)
- GI50 (HOP-62): 29.2 µM (inactive)
- GI50 (NCI-H226): 32.2 µM (inactive)
- GI50 (RXF 631): 31.4 µM (inactive)
- GI50 (HCT-15): 24.7 µM
- GI50 (NCI-H460): 26.6 µM (inactive)
- GI50 (786-0): 38.8 µM (inactive)
- GI50 (SF-268): 29.5 µM (inactive)
- GI50 (SF-539): 40.6 µM (inactive)
- GI50 (CAKI-1): 19.3 µM (inactive)
- GI50 (TK-10): 86.9 µM (inactive)
- GI50 (KM12): 19.1 µM (inactive)
- GI50 (NCI-H522): 15.8 µM (inactive)
